How the values were obtained:
Assay type in all cases: in vivo
[1] = system: barnyardgrass (Echinochloa crus-galli); assay: Test A preemergence, barnyardgrass; details: 0 to 100 scale (0 no effect, 100 complete control)
Procedure, shortened: (§1)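 Sow seeds in loam–sand blend; spray soil directly (pre) and treat emerged one- to two-leaf plants 2–10 cm tall (post) with compound in surfactant-containing non-phytotoxic solvent. Keep in greenhouse about ten days. Score injury visually against controls from 0 to 100.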

[2] = system: barnyardgrass (Echinochloa crus-galli); assay: Test B flooded paddy test, barnyardgrass; details: Flood
Procedure, shortened: (§2)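 Paddy-water application to 2-leaf plants in pots held under 3 cm of flooding; response is a 0–100 visual control rating against controls after 13 to 15 days, and a dash marks a missing result.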

[3] = system: large crabgrass (Digitaria sanguinalis); assay: Test A preemergence, large crabgrass; details: 0 to 100 scale (0 no effect, 100 complete control)
Procedure, shortened: as §1

[4] = system: nightshade (eastern black nightshade, Solanum ptycanthum); assay: Test B preemergence, nightshade; details: scale 0 to 100
Procedure, shortened: (§3)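 Planting into loam soil blended with sand preceded preemergence treatment. After 13 to 15 days under greenhouse conditions, response was judged by eye against controls, 0 meaning no effect and 100 complete control.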

[5] = system: pigweed (Amaranthus retroflexus); assay: Test A preemergence, pigweed; details: 0 to 100 scale (0 no effect, 100 complete control)
Procedure, shortened: as §1

[6] = system: umbrella sedge (Cyperus difformis); assay: Test B flooded paddy test, umbrella sedge; details: Flood, scale 0 to 100
Procedure, shortened: as §2

[7] = system: giant foxtail (Setaria faberii); assay: Test B preemergence, giant foxtail; details: scale 0 to 100
Procedure, shortened: as §3

[8] = system: ducksalad (Heteranthera limosa); assay: Test B flooded paddy test, ducksalad; details: Flood, scale 0 to 100
Procedure, shortened: as §2

[9] = system: lambsquarters (Chenopodium album); assay: Test B preemergence, lambsquarters; details: scale 0 to 100
Procedure, shortened: as §3

[10] = system: Surinam grass (Brachiaria decumbens); assay: Test B preemergence, Surinam grass; details: Preemergence, scale 0 to 100
Procedure, shortened: as §3

[11] = system: morningglory (Ipomoea coccinea); assay: Test B preemergence, morningglory; details: scale 0 to 100
Procedure, shortened: as §3

[12] = system: johnsongrass (Sorghum halepense); assay: Test B preemergence, johnsongrass; details: scale 0 to 100
Procedure, shortened: as §3

[13] = system: velvetleaf (Abutilon theophrasti); assay: Test A preemergence, velvetleaf; details: 0 to 100 scale (0 no effect, 100 complete control)
Procedure, shortened: as §1

[14] = system: wheat (Triticum aestivum); assay: Test A preemergence, wheat; details: 0 to 100 scale (0 no effect, 100 complete control)
Procedure, shortened: as §1

[15] = system: barnyardgrass (Echinochloa crus-galli); assay: Test A postemergence, barnyardgrass; details: 0 to 100 scale (0 no effect, 100 complete control)
Procedure, shortened: as §1

[16] = system: corn (Zea mays); assay: Test B preemergence, corn; details: scale 0 to 100
Procedure, shortened: as §3

[17] = system: soybean (Glycine max); assay: Test B preemergence, soybean; details: Preemergence, scale 0 to 100
Procedure, shortened: as §3

[18] = system: Italian ryegrass (Lolium multiflorum); assay: Test B preemergence, Italian ryegrass; details: Preemergence, scale 0 to 100
Procedure, shortened: as §3

[19] = system: velvetleaf (Abutilon theophrasti); assay: Test A postemergence, velvetleaf; details: 0 to 100 scale (0 no effect, 100 complete control)
Procedure, shortened: as §1

[20] = system: wheat (Triticum aestivum); assay: Test A postemergence, wheat; details: 0 to 100 scale (0 no effect, 100 complete control)
Procedure, shortened: as §1

## CC1(C)CC(S(=O)(=O)Cc2c(C(F)(F)C(F)(F)F)nc3n(c2=O)CCC3)=NO1 [Compound 22]
[1]; 125 g ai/ha
  Plant response rating, Barnyardgrass: 80
[1]; 500 g ai/ha
  Plant response rating, Barnyardgrass: 90
[2]; 62 g ai/ha, scale 0 to 100
  Plant response rating, Barnyardgrass: 0
[2]; 250 g ai/ha, scale 0 to 100 (0 no effect, 100 complete control)
  Plant response rating, Barnyardgrass: 0
[3]; 125 g ai/ha
  Plant response rating, Crabgrass, Large: 90
[3]; 500 g ai/ha
  Plant response rating, Crabgrass, Large: 100
[4]; 16 g ai/ha
  Plant response rating, Nightshade: 0
[4]; 31 g ai/ha
  Plant response rating, Nightshade: 60
[4]; 62 g ai/ha
  Plant response rating, Nightshade: 90
[4]; 125 g ai/ha
  Plant response rating, Nightshade: 100
[5]; 125 g ai/ha
  Plant response rating, Pigweed: 10
[5]; 500 g ai/ha
  Plant response rating, Pigweed: 90
[6]; 62 g ai/ha
  Plant response rating, Sedge, Umbrella: 0
[6]; 250 g ai/ha
  Plant response rating, Sedge, Umbrella: 0
[7]; 16 g ai/ha
  Plant response rating, Foxtail, Giant: 50
[7]; 31 g ai/ha
  Plant response rating, Foxtail, Giant: 50
[7]; 62 g ai/ha
  Plant response rating, Foxtail, Giant: 90
[7]; 125 g ai/ha
  Plant response rating, Foxtail, Giant: 100
[8]; 62 g ai/ha
  Plant response rating, Ducksalad: 0
[8]; 250 g ai/ha
  Plant response rating, Ducksalad: 0
[9]; 16 g ai/ha
  Plant response rating, Lambsquarters: 0
[9]; 31 g ai/ha
  Plant response rating, Lambsquarters: 0
[9]; 62 g ai/ha
  Plant response rating, Lambsquarters: 70
[9]; 125 g ai/ha
  Plant response rating, Lambsquarters: 100
[10]; 16 g ai/ha
  Plant response rating, Surinam Grass: 0
[10]; 31 g ai/ha
  Plant response rating, Surinam Grass: 0
[10]; 62 g ai/ha
  Plant response rating, Surinam Grass: 90
[10]; 125 g ai/ha
  Plant response rating, Surinam Grass: 95
[11]; 16 g ai/ha
  Plant response rating, Morningglory: 0
[11]; 31 g ai/ha
  Plant response rating, Morningglory: 0
[11]; 62 g ai/ha
  Plant response rating, Morningglory: 70
[11]; 125 g ai/ha
  Plant response rating, Morningglory: 100
[12]; 16 g ai/ha
  Plant response rating, Johnsongrass: 0
[12]; 31 g ai/ha
  Plant response rating, Johnsongrass: 10
[12]; 62 g ai/ha
  Plant response rating, Johnsongrass: 65
[12]; 125 g ai/ha
  Plant response rating, Johnsongrass: 98
[13]; 125 g ai/ha
  Plant response rating, Velvetleaf: 30
[13]; 500 g ai/ha
  Plant response rating, Velvetleaf: 90
[14]; 125 g ai/ha
  Plant response rating, Wheat: 0
[14]; 500 g ai/ha
  Plant response rating, Wheat: 50
[15]; 125 g ai/ha
  Plant response rating, Barnyardgrass: 70
[15]; 500 g ai/ha
  Plant response rating, Barnyardgrass: 80
[16]; 16 g ai/ha
  Plant response rating, Corn: 0
[16]; 31 g ai/ha
  Plant response rating, Corn: 0
[16]; 62 g ai/ha
  Plant response rating, Corn: 0
[16]; 125 g ai/ha
  Plant response rating, Corn: 10
[17]; 16 g ai/ha
  Plant response rating, Soybean: 0
[17]; 31 g ai/ha
  Plant response rating, Soybean: 0
[17]; 62 g ai/ha
  Plant response rating, Soybean: 0
[17]; 125 g ai/ha
  Plant response rating, Soybean: 0
[18]; 16 g ai/ha
  Plant response rating, Ryegrass, Italian: 0
[18]; 31 g ai/ha
  Plant response rating, Ryegrass, Italian: 30
[18]; 62 g ai/ha
  Plant response rating, Ryegrass, Italian: 100
[18]; 125 g ai/ha
  Plant response rating, Ryegrass, Italian: 100
[19]; 125 g ai/ha
  Plant response rating, Velvetleaf: 20
[19]; 500 g ai/ha
  Plant response rating, Velvetleaf: 60
[20]; 125 g ai/ha
  Plant response rating, Wheat: 20
[20]; 500 g ai/ha
  Plant response rating, Wheat: 50

From patent US20100099561A1, “HETEROBICYCLIC ALKYLTHIO-BRIDGED ISOXAZOLINES” (E.I. DU PONT DE NEMOURS AND COMPANY, priority 2008, published 2010)
